Patent publication US20240336934A1, “CRISPR/CAS9-BASED COMPOSITIONS AND METHODS FOR TREATING RETINAL DEGENERATIONS” (The Johns Hopkins University, priority 2016, published 2024)

Columns and labels:
primary RGCs [1] = experiment: Primary RGC survival (CellTiter-Glo) after immunopanning / colchicine; type: cell-based, mouse; conditions: combined knockdown of both DLK and LZK
Source text: For this screen, a high-throughput method was developed for knocking down gene expression in primary RGCs, from male and female C57Bl/6 mice (7), with small interfering RNA oligonucleotides (siRNAs) and coupled it with a quantitative assay of RGC survival (CellTiter-Glo, Promega) (5).
In order to identify these other targets, the kinome screen was modified to include Dlk siRNA in every well and sensitize it to those library siRNAs that synergized with DLK knockdown to further increase RGC survival (FIG. 19A). The other modification was to allow 48 hours for extant protein turnover, before exacerbating the immunopanning injury with colchicine, a microtubule destabilizer that has been used to model axon injury in vitro and in vivo (15, 16).

hESC-derived RGCs = experiment: Survival of hESC-derived RGCs after colchicine challenge; type: cell-based, human; conditions: two days after colchicine (1 μM); tozasertib (1 μM), Genentech inhibitor 123 (0.1 μM)
Experimental: FIG. 69A depicts survival (±SD) of hESC-derived RGCs two days after a challenge with vehicle or colchicine (1 μM) in the presence of the DLK/LZK inhibitors tozasertib (1 μM), Genentech inhibitor 123 (0.1 μM) or a vehicle control. FIG. 69B depicts survival (±SD) of hESC-derived RGCs two days after a challenge with colchicine (1 μM) in the presence of increasing doses of sunitinib.

primary RGCs [2] = conditions: compared with DLK knockdown or knockout alone; cited from earlier work
RGCs = conditions: rat optic nerve transection and glaucoma models; cited from earlier work
DLK [3] = target: T1, DLK (Homo sapiens, UniProt Q12852); conditions: published kinase inhibitor profiling data; cited from earlier work
T1 sequence (Q12852 1-859): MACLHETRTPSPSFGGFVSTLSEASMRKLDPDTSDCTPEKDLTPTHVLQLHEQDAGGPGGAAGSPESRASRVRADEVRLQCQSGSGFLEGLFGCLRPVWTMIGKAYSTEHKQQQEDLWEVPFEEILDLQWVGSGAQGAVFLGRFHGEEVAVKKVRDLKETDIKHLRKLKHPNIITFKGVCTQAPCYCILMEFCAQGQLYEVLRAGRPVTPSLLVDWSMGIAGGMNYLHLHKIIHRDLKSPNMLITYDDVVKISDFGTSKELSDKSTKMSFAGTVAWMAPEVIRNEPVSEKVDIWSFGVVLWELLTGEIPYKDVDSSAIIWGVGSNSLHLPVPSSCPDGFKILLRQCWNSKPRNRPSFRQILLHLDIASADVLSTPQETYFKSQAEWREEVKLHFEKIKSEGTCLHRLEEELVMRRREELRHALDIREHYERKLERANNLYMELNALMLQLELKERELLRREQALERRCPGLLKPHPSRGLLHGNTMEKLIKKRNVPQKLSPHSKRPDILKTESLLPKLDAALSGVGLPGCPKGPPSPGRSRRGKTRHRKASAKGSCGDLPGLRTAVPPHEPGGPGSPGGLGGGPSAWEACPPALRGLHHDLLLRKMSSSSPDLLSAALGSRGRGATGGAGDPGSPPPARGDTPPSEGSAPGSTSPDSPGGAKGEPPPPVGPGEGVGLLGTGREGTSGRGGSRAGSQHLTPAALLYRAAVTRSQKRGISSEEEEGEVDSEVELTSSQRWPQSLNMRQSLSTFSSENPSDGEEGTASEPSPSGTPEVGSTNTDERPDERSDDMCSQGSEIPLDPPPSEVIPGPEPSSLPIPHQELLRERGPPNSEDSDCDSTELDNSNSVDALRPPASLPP

LZK = target: T2, LZK (Homo sapiens, UniProt O43283); conditions: published kinase inhibitor profiling data; cited from earlier work
T2 sequence (O43283 1-966): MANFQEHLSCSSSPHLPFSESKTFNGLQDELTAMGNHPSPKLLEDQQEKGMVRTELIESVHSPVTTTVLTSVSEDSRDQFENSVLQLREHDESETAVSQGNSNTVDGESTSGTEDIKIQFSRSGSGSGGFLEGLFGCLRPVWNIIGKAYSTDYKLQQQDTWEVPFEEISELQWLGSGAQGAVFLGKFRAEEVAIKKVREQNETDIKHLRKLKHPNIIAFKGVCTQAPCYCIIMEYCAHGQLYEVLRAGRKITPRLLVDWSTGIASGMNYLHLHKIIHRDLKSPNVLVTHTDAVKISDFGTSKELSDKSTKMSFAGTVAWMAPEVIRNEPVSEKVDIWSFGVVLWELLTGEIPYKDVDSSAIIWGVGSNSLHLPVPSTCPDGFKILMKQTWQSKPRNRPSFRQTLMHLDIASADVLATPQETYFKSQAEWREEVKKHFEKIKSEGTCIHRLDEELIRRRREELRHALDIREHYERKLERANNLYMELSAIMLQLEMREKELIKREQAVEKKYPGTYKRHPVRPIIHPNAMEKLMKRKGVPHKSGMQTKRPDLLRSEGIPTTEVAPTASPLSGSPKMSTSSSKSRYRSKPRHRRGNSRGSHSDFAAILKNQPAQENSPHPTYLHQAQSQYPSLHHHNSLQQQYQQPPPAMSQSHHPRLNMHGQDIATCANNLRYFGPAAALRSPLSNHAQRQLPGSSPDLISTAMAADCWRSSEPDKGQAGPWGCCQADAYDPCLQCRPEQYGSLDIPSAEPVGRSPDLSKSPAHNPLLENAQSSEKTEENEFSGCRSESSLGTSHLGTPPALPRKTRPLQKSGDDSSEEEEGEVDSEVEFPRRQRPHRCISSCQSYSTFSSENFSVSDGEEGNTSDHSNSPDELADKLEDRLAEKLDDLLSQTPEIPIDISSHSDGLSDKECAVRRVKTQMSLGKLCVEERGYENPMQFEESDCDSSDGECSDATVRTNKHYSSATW

Dlk [4] = experiment: scAAV/lentivirus transduction of RGCs from Cas9 mouse; BglII assay for Dlk gene editing; type: cell-based; conditions: gRNA delivered by ssAAV, Cas9 present from the mouse
Source text: Cells were harvested from the Cas9 mouse, and transduced in vitro. […] The construct was packaged to produce a self-complementary AAV (scAAV). […] Cells were harvested from the Cas9 mouse, and transduced in vitro. […] The gRNA (mm079) was delivered by ssAAV and Cas9 was present from the mouse
Titration of scAAV virus transducing either WT RGC or RGCs derived from the Cas9 mouse. […] In this assay, we are assaying for cutting by loss of a restriction enzyme site. […] A construct was generated using the H1 promoter to express a gRNA (shown in black) and mCherry simultaneously. […] The construct was packaged to produce a self-complementary AAV (scAAV).
To test this system, an AAV construct was generated that used the H1 promoter to express an mCherry-histone 2B fusion in the Pol II direction and the Dlk #4 gRNA (5′[sequence] 3′ (SEQ ID NO: 163)), which conveniently targets a BglII site (FIGS. 19G and 1H), in the Pol III direction (Dlk gRNA:H1:H2B-mCherry). […]
For restriction analysis, genomic DNA was extracted by resuspending cells in QuickExtract solution (Epicentre, Madison, WI), incubating at 65° C. for 20 min, and then at 98° C. for 20 min. The extract solution was used directly or cleaned using DNA Clean and Concentrator (Zymo Research, Irvine, CA), and quantitated by NanoDrop (Thermo 30 Fisher Scientific).

Row | Compound | RGC survival on addition of drug to combined knockdown of DLK and LZK (primary RGCs [1]) | survival of hESC-derived RGCs (hESC-derived RGCs) | RGC survival in vitro (primary RGCs [2]) | protection of RGCs (RGCs) | inhibitor of DLK (DLK [3]) | inhibition of LZK (LZK) | targeting as detected by a BglII assay (Dlk [4]) [%]
1 | Cc1cc(Nc2cc(N3CCN(C)CC3)nc(Sc3ccc(NC(=O)C4CC4)cc3)n2)[nH]n1 [tozasertib] | had no effect | promotes the survival of human ESC-derived RGCs | consistently improved RGC survival in vitro more than DLK knockdown or knockout alone | protected RGCs in both the rat optic nerve transection and glaucoma models | identified as an inhibitor of DLK | does inhibit LZK | 
2 | GAAGAAGGTTCGAGATCTCAAGG (chemistry not given here) [mm079] |  |  |  |  |  |  | ~100
